Publication PMC6996298 (Frontiers in Plant Science, 2020)
Values belong to the molecule of their own block, whether it stands above or below them.

Experiments:
VvSWEET7 = target: T1, VvSWEET7 (Vitis vinifera, UniProt A0ACM8QLM4); experiment: inhibition of D-[…]-glucose uptake in yeast EBY.VW4000; assay type: cell-based; settings: read-out: % inhibition at 500 mM
T1 construct: gene VIT_02s0025g02080; full-length cDNA in pYES-DEST52 (GAL1 promoter), expressed in hxt-null S. cerevisiae EBY.VW4000
T1 sequence (A0ACM8QLM4 1-260): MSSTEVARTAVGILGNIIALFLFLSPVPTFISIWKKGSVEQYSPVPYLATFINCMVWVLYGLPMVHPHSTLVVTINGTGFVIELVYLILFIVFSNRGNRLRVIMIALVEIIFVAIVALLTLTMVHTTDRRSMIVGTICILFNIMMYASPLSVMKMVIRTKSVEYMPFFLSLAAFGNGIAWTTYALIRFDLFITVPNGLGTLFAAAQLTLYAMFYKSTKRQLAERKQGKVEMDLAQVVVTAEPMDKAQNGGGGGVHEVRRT

[1] = substrate: OC[C@H]1O[C@@](CO)(O[C@H]2O[C@H](CO)[C@@H](O)[C@H](O)[C@H]2O)[C@@H](O)[C@@H]1O; experiment: initial uptake of radiolabelled sugar in yeast EBY.VW4000, Michaelis-Menten; assay type: cell-based, Vitis vinifera; settings: labelled compound, 7.5-125 mM, KH2PO4 pH 5.0, 30 °C, 3 min

- inhibition at 500000 µM (VvSWEET7): 79%
Molecule: OCC1(O)OC[C@@H](O)[C@@H](O)[C@@H]1O (some centres unmarked) [fructose]

- inhibition at 500000 µM (VvSWEET7): 56%
Molecule: OC[C@H]1OC(O)[C@H](O)[C@@H](O)[C@H]1O (some centres unmarked) [galactose]

Molecule: OC[C@@H](O)[C@@H](O)[C@H](O)[C@H](O)CO [mannitol]
- inhibition at 500000 µM (VvSWEET7): 29%

Molecule: OC[C@@H](O)[C@@H](O)[C@H](O)[C@@H](O)CO [sorbitol]
- inhibition at 500000 µM (VvSWEET7): 38%

B1: VvSWEET7 (Vitis vinifera) (protein)
chain: T1 sequence (A0ACM8QLM4 1-260)
notes: full-length cDNA in pYES-DEST52 (GAL1 promoter), expressed in hxt-null S. cerevisiae EBY.VW4000
- Km [1]: 40.08 mM
